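The compound was tested at five concentrations on cells cultured in 96-well plates, with a 48-hour exposure period. The concentration for 50% growth inhibition is given as GI50. TGI: concentration producing complete growth inhibition.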
Key:
Test in all cases: NCI anticancer screen, dose series, 48 h
SK-MEL-28 melanoma = test system: SK-MEL-28 melanoma
OVCAR-5 ovarian = test system: OVCAR-5 ovarian
OVCAR-8 ovarian = test system: OVCAR-8 ovarian
SF-539 CNS = test system: SF-539 CNS
UACC-62 melanoma = test system: UACC-62 melanoma
A498 renal = test system: A498 renal
786-0 renal = test system: 786-0 renal
KM12 colon = test system: KM12 colon
COLO 205 colon = test system: COLO 205 colon
NCI-H226 lung = test system: NCI-H226 lung

Compound: N#Cc1ccnc(N2C(=O)CC[C@H]2C(=O)N(c2cncc(F)c2)[C@H](C(=O)NC2CC(F)(F)C2)c2ccccc2Cl)c1
- GI50 (SK-MEL-28 melanoma): > 100 µM
- TGI (SK-MEL-28 melanoma): > 100 µM
- GI50 (OVCAR-5 ovarian): > 100 µM
- TGI (OVCAR-5 ovarian): > 100 µM
- GI50 (OVCAR-8 ovarian): > 100 µM
- TGI (OVCAR-8 ovarian): > 100 µM
- GI50 (SF-539 CNS): > 100 µM
- TGI (SF-539 CNS): > 100 µM
- GI50 (UACC-62 melanoma): 41.2 µM
- TGI (UACC-62 melanoma): > 100 µM
- GI50 (A498 renal): 81.7 µM
- TGI (A498 renal): > 100 µM
- GI50 (786-0 renal): > 100 µM
- TGI (786-0 renal): > 100 µM
- GI50 (KM12 colon): 67 µM
- TGI (KM12 colon): > 100 µM
- GI50 (COLO 205 colon): > 100 µM
- TGI (COLO 205 colon): > 100 µM
- GI50 (NCI-H226 lung): > 100 µM
- TGI (NCI-H226 lung): > 100 µM

Compound: Nc1ncnc2c1ncn2C1OC(CO)=CC1O (stereo not given)
- TGI (SK-MEL-28 melanoma): > 37.5 µM
- TGI (OVCAR-5 ovarian): > 37.5 µM
- TGI (OVCAR-8 ovarian): > 37.5 µM
- TGI (SF-539 CNS): > 37.5 µM
- TGI (UACC-62 melanoma): > 37.5 µM
- TGI (A498 renal): > 37.5 µM
- TGI (786-0 renal): > 37.5 µM
- TGI (KM12 colon): > 37.5 µM
- TGI (COLO 205 colon): > 37.5 µM
- TGI (NCI-H226 lung): > 37.5 µM
